Measured values as given in patent US10881640B2, “Topical pharmaceutical compositions for treatment of pilonidal sinus wounds” (S.L.A. PHARMA AG, priority 2002, dated 2021).

Test system: ischemic ulcers
Assay: Case report: ischemic ulcers (peripheral vascular disease)
Format: in vivo, human
Settings: person, prior therapy before topical treatment
Description: A person presents with chronic peripheral vascular disease and ischemic ulcers over the medial aspect of the hallux.

SMILES: CC(=O)CCCCn1c(=O)c2c(ncn2C)n(C)c1=O [Trental]
- healing: failed to improve healing
